Experimental findings from patent publication US8163771B2, “11 β-HSD1 modulators” (Exelixis, Inc., priority 2008, dated 2012) are described below.

Broadly, the pIC50 is the negative decadic logarithm of the IC50, by convention in mol/L.

The target of this assay is T1, recombinant human 11 β-HSD1 (Homo sapiens, UniProt P28845).
T1 construct: made in house; host or cells: E. coli
Nature of the assay: 11 β-HSD1 SPA Assay (Scintillation Proximity Assay). The assay is classed as biochemical. Put shortly: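 Scintillation proximity read-out of cortisol formed from 40 nM [3H]cortisone by purified recombinant human enzyme (30-100 nM, E. coli) with 1 mM NADPH, pH7.4, 2 hours at room temperature; beads with cortisol antibody and glycyrrhetinic acid stop the reaction, read next day. IC50 derived from inhibition normalised to background and maximal wells.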

pIC50: −log10 of the molar value.

T1 sequence (P28845 whole entry): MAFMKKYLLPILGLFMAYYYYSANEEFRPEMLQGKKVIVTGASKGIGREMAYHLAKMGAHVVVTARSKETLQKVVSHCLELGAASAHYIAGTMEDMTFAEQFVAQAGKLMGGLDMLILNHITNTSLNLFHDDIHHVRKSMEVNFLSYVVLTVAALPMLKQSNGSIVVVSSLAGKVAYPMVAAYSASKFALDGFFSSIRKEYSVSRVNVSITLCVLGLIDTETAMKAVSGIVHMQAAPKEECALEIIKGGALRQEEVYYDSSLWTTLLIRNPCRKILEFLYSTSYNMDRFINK

As to `CC(C)(Oc1cc(OCCO)c(Cl)cc1Cl)C(=O)N[C@H]1C[C@H]2CC[C@@H](C1)N2c1ccc(C(=O)NCC(F)F)cn1` [Example 402, 6-(3-endo-(2-(2,4-dichloro-5-(2-hydroxyethoxy)phenoxy)-2-methylpropanamido)-8-azabicyclo[3.2.1]octan-8-yl)-N-(2,2-difluoroethyl)nicotinamide], the pIC50 is greater than 6.70.
In the case of `CC(C)(Oc1ccc(Cl)cc1C(F)F)C(=O)N[C@H]1C[C@H]2CC[C@@H](C1)N2c1ccc(C(=O)NC2(CO)CC2)cn1` [Example 403, 6-(3-endo-(2-(4-chloro-2-(difluoromethyl)phenoxy)-2-methylpropanamido)-8-azabicyclo[3.2.1]octan-8-yl)-N-(1-(hydroxymethyl)cyclopropyl) nicotinamide], the pIC50 was greater than 6.70.
On to `CC(C)(Oc1ccc(Cl)cc1C(F)F)C(=O)N[C@H]1C[C@H]2CC[C@@H](C1)N2c1ccc(C(=O)Nc2ccon2)cn1` [Example 404, 6-(3-endo-(2-(4-chloro-2-(difluoromethyl)phenoxy)-2-methylpropanamido)-8-azabicyclo[3.2.1]octan-8-yl)-N-(isoxazol-3-yl)nicotinamide], for which the pIC50 was greater than 6.70.
As for `CC(C)(Oc1cc(OCCN2CCCC2)c(Cl)cc1Cl)C(=O)N[C@H]1C[C@H]2CC[C@@H](C1)N2c1ccc(C(=O)NCC(F)(F)F)cn1` [Example 405, 6-(3-endo-(2-(2,4-dichloro-5-(2-(pyrrolidin-1-yl)ethoxy)phenoxy)-2-methylpropanamido)-8-azabicyclo[3.2.1]octan-8-yl)-N-(2,2,2-trifluoroethyl)nicotinamide], the pIC50 was greater than 6.70.
Then `CN1CCN(CCOc2cc(OC(C)(C)C(=O)N[C@H]3C[C@H]4CC[C@@H](C3)N4c3ccc(C(=O)NCC(F)(F)F)cn3)c(Cl)cc2Cl)CC1` [Example 406, 6-(3-endo-(2-(2,4-dichloro-5-(2-(4-methylpiperazin-1-yl)ethoxy)phenoxy)-2-methylpropanamido)-8-azabicyclo[3.2.1]octan-8-yl)-N-(2,2,2-trifluoroethyl)nicotinamide], with greater than 6.70; and `CC(C)(Oc1cc(OCCN2CCOCC2)c(Cl)cc1Cl)C(=O)N[C@H]1C[C@H]2CC[C@@H](C1)N2c1ccc(C(=O)NCC(F)(F)F)cn1` [Example 407, 6-(3-endo-(2-(2,4-dichloro-5-(2-morpholinoethoxy)phenoxy)-2-methylpropanamido)-8-azabicyclo[3.2.1]octan-8-yl)-N-(2,2,2-trifluoroethyl)nicotinamide], with greater than 6.70; and `CC(C)(Oc1ncc(Cl)cc1Cl)C(=O)N[C@H]1C[C@H]2CC[C@@H](C1)N2c1ccc(C(=O)NCC(F)F)cn1` [Example 408, 6-(3-endo-(2-(3,5-dichloropyridin-2-yloxy)-2-methylpropanamido)-8-azabicyclo[3.2.1]octan-8-yl)-N-(2,2-difluoroethyl)nicotinamide], with greater than 6.70.
On to `CC(C)(Oc1ncc(Cl)cc1F)C(=O)N[C@H]1C[C@H]2CC[C@@H](C1)N2c1ccc(C(=O)NCC(F)F)cn1` [Example 409, 6-(3-endo-(2-(5-chloro-3-fluoropyridin-2-yloxy)-2-methylpropanamido)-8-azabicyclo[3.2.1]octan-8-yl)-N-(2,2-difluoroethyl)nicotinamide], for which the pIC50 was greater than 6.70.
As for `C[C@H](NC(=O)c1ccc(N2C3CCC2CC(NC(=O)C(C)(C)Oc2ccc(Cl)cc2OC(F)(F)F)C3)nc1)C(F)(F)F` (stereo partly drawn) [Example 410, 6-(3-endo-(2-(4-chloro-2-(trifluoromethoxy)phenoxy)-2-methylpropanamido)-8-azabicyclo[3.2.1]octan-8-yl)-N-((S)-1,1,1-trifluoropropan-2-yl)nicotinamide], the figure is greater than 6.70; as for `C[C@@H](NC(=O)c1ccc(N2C3CCC2CC(NC(=O)C(C)(C)Oc2ccc(Cl)cc2C(F)F)C3)nc1)C(F)(F)F` (stereo partly drawn) [Example 411, 6-(3-endo-(2-(4-chloro-2-(difluoromethyl)phenoxy)-2-methylpropanamido)-8-azabicyclo[3.2.1]octan-8-yl)-N-((R)-1,1,1-trifluoropropan-2-yl)nicotinamide], greater than 6.70.
Then `C[C@@H](NC(=O)c1ccc(N2C3CCC2CC(NC(=O)C(C)(C)Oc2ccc(Cl)cc2C(F)(F)F)C3)nc1)C(F)(F)F` (stereo partly drawn) [Example 412, 6-(3-endo-(2-(4-chloro-2-(trifluoromethyl)phenoxy)-2-methylpropanamido)-8-azabicyclo[3.2.1]octan-8-yl)-N-((R)-1,1,1-trifluoropropan-2-yl)nicotinamide], with greater than 6.70.
`CC(C)(Oc1cc(OCC(=O)O)c(Cl)cc1Cl)C(=O)N[C@H]1C[C@H]2CC[C@@H](C1)N2c1ccc(C(=O)NCC(F)(F)F)cn1` [Example 413, 2-(2,4-dichloro-5-(2-methyl-1-oxo-1-(8-(5-(2,2,2-trifluoroethylcarbamoyl)pyridin-2-yl)-8-azabicyclo[3.2.1]octan-3-endo-ylamino)propan-2-yloxy)phenoxy)acetic acid]: the pIC50 is greater than 6.70.
Regarding `CC(C)(Oc1cc(OC(C)(C)C(=O)N[C@H]2C[C@H]3CC[C@@H](C2)N3c2ccc(C(=O)NCC(F)(F)F)cn2)c(Cl)cc1Cl)C(=O)O` [Example 414, 2-(2,4-dichloro-5-(2-methyl-1-oxo-1-(8-(5-(2,2,2-trifluoroethylcarbamoyl)pyridin-2-yl)-8-azabicyclo[3.2.1]octan-3-endo-ylamino)propan-2-yloxy)phenoxy)-2-methylpropanoic acid], the pIC50 was greater than 5.70.
As for `C[C@@H](NC(=O)c1ccc(N2C3CCC2CC(NC(=O)C(C)(C)Oc2ccc(Cl)cc2OC(F)(F)F)C3)nc1)C(F)(F)F` (stereo partly drawn) [Example 415, 6-[3-endo-({2-[4-chloro-2-(trifluoromethoxy)phenoxy]-2-methylpropanoyl}amino)-8-azabicyclo[3.2.1]oct-8-yl]-N-[(2R)-1,1,1-trifluoropropan-2-yl]pyridine-3-carboxamide], the figure is greater than 6.70; as for `C[C@H](NC(=O)c1ccc(N2C3CCC2CC(NC(=O)C(C)(C)Oc2ccc(Cl)cc2C(F)(F)F)C3)nc1)C(F)(F)F` (stereo partly drawn) [Example 416, 6-[3-endo-({2-[4-chloro-2-(trifluoromethyl)phenoxy]-2-methylpropanoyl}amino)-8-azabicyclo[3.2.1]oct-8-yl]-N-[(2S)-1,1,1-trifluoropropan-2-yl]pyridine-3-carboxamide], greater than 6.70.
Take `C[C@H](NC(=O)c1ccc(N2C3CCC2CC(NC(=O)C(C)(C)Oc2ncc(Cl)cc2Cl)C3)nc1)C(F)(F)F` (stereo partly drawn) [Example 417, 6-[3-endo-({2-[(3,5-dichloropyridin-2-yl)oxy]-2-methylpropanoyl}amino)-8-azabicyclo[3.2.1]oct-8-yl]-N-[(2S)-1,1,1-trifluoropropan-2-yl]pyridine-3-carboxamide]: the pIC50 was greater than 6.70.
Then `C[C@H](NC(=O)c1ccc(N2C3CCC2CC(NC(=O)C(C)(C)Oc2ccc(F)cc2C(F)F)C3)nc1)C(F)(F)F` (stereo partly drawn) [Example 418, 6-[3-endo-({2-[2-(difluoromethyl)-4-fluorophenoxy]-2-methylpropanoyl}amino)-8-azabicyclo[3.2.1]oct-8-yl]-N-[(2S)-1,1,1-trifluoropropan-2-yl]pyridine-3-carboxamide], with greater than 6.70.
`C[C@H](NC(=O)c1ccc(N2C3CCC2CC(NC(=O)C(C)(C)Oc2ncc(Cl)cc2F)C3)nc1)C(F)(F)F` (stereo partly drawn) [Example 419, 6-[3-endo-({2-[(5-chloro-3-fluoropyridin-2-yl)oxy]-2-methylpropanoyl}amino)-8-azabicyclo[3.2.1]oct-8-yl]-N-[(2S)-1,1,1-trifluoropropan-2-yl]pyridine-3-carboxamide]: the pIC50 is greater than 5.70.
For the molecule `C[C@H](NC(=O)c1ccc(N2C3CCC2CC(NC(=O)C(C)(C)Oc2ccc(Cl)cc2)C3)nc1)C(F)(F)F` (stereo partly drawn) [Example 420, 6-(3-endo-{[2-(4-chlorophenoxy)-2-methylpropanoyl]amino}-8-azabicyclo[3.2.1]oct-8-yl)-N-[(2S)-1,1,1-trifluoropropan-2-yl]pyridine-3-carboxamide], the pIC50 is greater than 5.70.
As for `CC(C)(Oc1ccc(Cl)cc1Cl)C(=O)NC1CC2CCC(C1)N2c1ccc(C(=O)NCC(O)C(F)(F)F)cn1` (stereo not drawn) [Example 421, 6-(3-endo-{[2-(2,4-dichlorophenoxy)-2-methylpropanoyl]amino}-8-azabicyclo[3.2.1]oct-8-yl)-N-(3,3,3-trifluoro-2-hydroxypropyl)pyridine-3-carboxamide], the figure is greater than 6.70.
Then `CC(C)(Oc1ccc(Cl)cc1S(C)(=O)=O)C(=O)N[C@H]1C[C@H]2CC[C@@H](C1)N2c1ccc(C(=O)NCC(F)F)cn1` [Example 422, 6-[3-endo-({2-[4-chloro-2-(methylsulfonyl)phenoxy]-2-methylpropanoyl}amino)-8-azabicyclo[3.2.1]oct-8-yl]-N-(2,2-difluoroethyl)pyridine-3-carboxamide], with greater than 6.70.
Then `C[C@H](NC(=O)c1ccc(N2C3CCC2CC(NC(=O)C(C)(C)Oc2ccc(F)cc2C(F)(F)F)C3)nc1)C(F)(F)F` (stereo partly drawn) [Example 423, 6-[3-endo-({2-[4-fluoro-2-(trifluoromethyl)phenoxy]-2-methylpropanoyl}amino)-8-azabicyclo[3.2.1]oct-8-yl]-N-[(2S)-1,1,1-trifluoropropan-2-yl]pyridine-3-carboxamide], with greater than 6.70; and `C[C@H](NC(=O)c1ccc(N2C3CCC2CC(NC(=O)C(C)(C)Oc2ccc(Cl)cc2C(F)F)C3)nc1)C(F)(F)F` (stereo partly drawn) [Example 424, 6-[3-endo-({2-[4-chloro-2-(difluoromethyl)phenoxy]-2-methylpropanoyl}amino)-8-azabicyclo[3.2.1]oct-8-yl]-N-[(2S)-1,1,1-trifluoropropan-2-yl]pyridine-3-carboxamide], with greater than 6.70.
For the molecule `C[C@H](NC(=O)c1ccc(N2C3CCC2CC(NC(=O)C(C)(C)Oc2cc(F)c(Cl)cc2Cl)C3)nc1)C(F)(F)F` (stereo partly drawn) [Example 425, 6-(3-endo-{[2-(2,4-dichloro-5-fluorophenoxy)-2-methylpropanoyl]amino}-8-azabicyclo[3.2.1]oct-8-yl)-N-[(2S)-1,1,1-trifluoropropan-2-yl]pyridine-3-carboxamide], the pIC50 is greater than 6.70.
